Numbers after ± are expanded uncertainties.
How the values were obtained:
[1] = 83 kPa, Liquid; for speed of sound: Frequency=3 MHz, Single path-length method; for mass density: Vibrating tube method
[2] = molar heat capacity at constant pressure; conditions: 83 kPa, Liquid, DSC

CCCCCCC(=O)OCC(COC(=O)CCCCCC)(COC(=O)CCCCCC)COC(=O)CCCCCC [pentaerythritol tetraheptanoate]
speed of sound ([1]; 278.15 K): 1435 ± 3.2 m/s
mass density ([1]; 278.15 K): 989.09 ± 2.1 kg/m3
speed of sound ([1]; 283.15 K): 1417.7 ± 3.2 m/s
mass density ([1]; 283.15 K): 985.27 ± 2.1 kg/m3
speed of sound ([1]; 288.15 K): 1400.7 ± 3.2 m/s
mass density ([1]; 288.15 K): 981.48 ± 2.1 kg/m3
speed of sound ([1]; 293.15 K): 1383.8 ± 3.2 m/s
mass density ([1]; 293.15 K): 977.69 ± 2.1 kg/m3
speed of sound ([1]; 298.15 K): 1367 ± 3.2 m/s
mass density ([1]; 298.15 K): 973.91 ± 2.1 kg/m3
speed of sound ([1]; 303.15 K): 1350.3 ± 3.2 m/s
mass density ([1]; 303.15 K): 970.14 ± 2.1 kg/m3
speed of sound ([1]; 308.15 K): 1333.9 ± 3.2 m/s
mass density ([1]; 308.15 K): 966.38 ± 2.1 kg/m3
speed of sound ([1]; 313.15 K): 1317.8 ± 3.2 m/s
mass density ([1]; 313.15 K): 962.62 ± 2.1 kg/m3
speed of sound ([1]; 318.15 K): 1301.9 ± 3.2 m/s
mass density ([1]; 318.15 K): 958.87 ± 2.1 kg/m3
speed of sound ([1]; 323.15 K): 1286.1 ± 3.2 m/s
mass density ([1]; 323.15 K): 955.13 ± 2.1 kg/m3
speed of sound ([1]; 328.15 K): 1270.4 ± 3.2 m/s
mass density ([1]; 328.15 K): 951.39 ± 2.1 kg/m3
speed of sound ([1]; 333.15 K): 1254.9 ± 3.2 m/s
mass density ([1]; 333.15 K): 947.66 ± 2.1 kg/m3
speed of sound ([1]; 338.15 K): 1239.6 ± 3.2 m/s
mass density ([1]; 338.15 K): 943.92 ± 2.1 kg/m3
speed of sound ([1]; 343.15 K): 1224.5 ± 3.2 m/s
mass density ([1]; 343.15 K): 940.2 ± 2.1 kg/m3
molar heat capacity at constant pressure ([2]; 293.14 K): 1059.1 ± 49 J/K/mol
molar heat capacity at constant pressure ([2]; 294.14 K): 1060.3 ± 49 J/K/mol
molar heat capacity at constant pressure ([2]; 295.14 K): 1062 ± 49 J/K/mol
molar heat capacity at constant pressure ([2]; 296.14 K): 1063.8 ± 49 J/K/mol
molar heat capacity at constant pressure ([2]; 297.14 K): 1065.6 ± 49 J/K/mol
molar heat capacity at constant pressure ([2]; 298.14 K): 1066.7 ± 49 J/K/mol
molar heat capacity at constant pressure ([2]; 299.14 K): 1068.5 ± 49 J/K/mol
molar heat capacity at constant pressure ([2]; 300.14 K): 1070.2 ± 49 J/K/mol
molar heat capacity at constant pressure ([2]; 301.14 K): 1071.4 ± 49 J/K/mol
molar heat capacity at constant pressure ([2]; 302.14 K): 1073.2 ± 49 J/K/mol
molar heat capacity at constant pressure ([2]; 303.14 K): 1074.9 ± 49 J/K/mol
molar heat capacity at constant pressure ([2]; 304.14 K): 1076.1 ± 49 J/K/mol
molar heat capacity at constant pressure ([2]; 305.14 K): 1077.8 ± 49 J/K/mol
molar heat capacity at constant pressure ([2]; 306.14 K): 1079 ± 49 J/K/mol
molar heat capacity at constant pressure ([2]; 307.14 K): 1080.8 ± 49 J/K/mol
molar heat capacity at constant pressure ([2]; 308.14 K): 1082.5 ± 49 J/K/mol
molar heat capacity at constant pressure ([2]; 309.14 K): 1083.7 ± 49 J/K/mol
molar heat capacity at constant pressure ([2]; 310.14 K): 1085.4 ± 49 J/K/mol
molar heat capacity at constant pressure ([2]; 311.14 K): 1086.6 ± 49 J/K/mol
molar heat capacity at constant pressure ([2]; 312.14 K): 1088.4 ± 49 J/K/mol
molar heat capacity at constant pressure ([2]; 313.14 K): 1090.1 ± 49 J/K/mol
molar heat capacity at constant pressure ([2]; 314.14 K): 1091.9 ± 49 J/K/mol
molar heat capacity at constant pressure ([2]; 315.14 K): 1093 ± 49 J/K/mol
molar heat capacity at constant pressure ([2]; 316.14 K): 1094.8 ± 49 J/K/mol
molar heat capacity at constant pressure ([2]; 317.14 K): 1096.5 ± 49 J/K/mol
molar heat capacity at constant pressure ([2]; 318.14 K): 1098.3 ± 49 J/K/mol
molar heat capacity at constant pressure ([2]; 319.14 K): 1099.5 ± 49 J/K/mol
molar heat capacity at constant pressure ([2]; 320.14 K): 1101.2 ± 49 J/K/mol
molar heat capacity at constant pressure ([2]; 321.14 K): 1103 ± 49 J/K/mol
molar heat capacity at constant pressure ([2]; 322.13 K): 1104.1 ± 49 J/K/mol
molar heat capacity at constant pressure ([2]; 323.14 K): 1105.9 ± 49 J/K/mol
molar heat capacity at constant pressure ([2]; 324.14 K): 1107.7 ± 49 J/K/mol
molar heat capacity at constant pressure ([2]; 325.14 K): 1108.8 ± 49 J/K/mol
molar heat capacity at constant pressure ([2]; 326.14 K): 1110.6 ± 49 J/K/mol
molar heat capacity at constant pressure ([2]; 327.14 K): 1112.3 ± 49 J/K/mol
molar heat capacity at constant pressure ([2]; 328.14 K): 1114.1 ± 49 J/K/mol
molar heat capacity at constant pressure ([2]; 329.14 K): 1115.8 ± 49 J/K/mol
molar heat capacity at constant pressure ([2]; 330.14 K): 1117 ± 49 J/K/mol
molar heat capacity at constant pressure ([2]; 331.14 K): 1118.8 ± 49 J/K/mol
molar heat capacity at constant pressure ([2]; 332.14 K): 1120.5 ± 49 J/K/mol
molar heat capacity at constant pressure ([2]; 333.14 K): 1121.7 ± 49 J/K/mol
molar heat capacity at constant pressure ([2]; 334.13 K): 1123.4 ± 49 J/K/mol
molar heat capacity at constant pressure ([2]; 335.14 K): 1125.2 ± 49 J/K/mol
molar heat capacity at constant pressure ([2]; 336.14 K): 1127 ± 50 J/K/mol
molar heat capacity at constant pressure ([2]; 337.14 K): 1128.1 ± 49 J/K/mol
molar heat capacity at constant pressure ([2]; 338.14 K): 1129.9 ± 49 J/K/mol
molar heat capacity at constant pressure ([2]; 339.14 K): 1131.6 ± 49 J/K/mol
molar heat capacity at constant pressure ([2]; 340.14 K): 1133.4 ± 49 J/K/mol
molar heat capacity at constant pressure ([2]; 341.13 K): 1134.6 ± 49 J/K/mol
molar heat capacity at constant pressure ([2]; 342.14 K): 1136.3 ± 49 J/K/mol
molar heat capacity at constant pressure ([2]; 343.14 K): 1138.1 ± 49 J/K/mol
molar heat capacity at constant pressure ([2]; 344.14 K): 1139.8 ± 49 J/K/mol
molar heat capacity at constant pressure ([2]; 345.13 K): 1141.6 ± 49 J/K/mol
molar heat capacity at constant pressure ([2]; 346.14 K): 1143.3 ± 50 J/K/mol
molar heat capacity at constant pressure ([2]; 347.14 K): 1145.1 ± 50 J/K/mol
molar heat capacity at constant pressure ([2]; 348.14 K): 1146.3 ± 49 J/K/mol
molar heat capacity at constant pressure ([2]; 349.14 K): 1148 ± 50 J/K/mol
molar heat capacity at constant pressure ([2]; 350.14 K): 1149.8 ± 50 J/K/mol
molar heat capacity at constant pressure ([2]; 351.14 K): 1151.5 ± 50 J/K/mol
molar heat capacity at constant pressure ([2]; 352.14 K): 1153.3 ± 50 J/K/mol
molar heat capacity at constant pressure ([2]; 353.14 K): 1154.4 ± 50 J/K/mol
molar heat capacity at constant pressure ([2]; 354.14 K): 1156.2 ± 50 J/K/mol
molar heat capacity at constant pressure ([2]; 355.14 K): 1158 ± 50 J/K/mol
molar heat capacity at constant pressure ([2]; 356.14 K): 1159.7 ± 50 J/K/mol
molar heat capacity at constant pressure ([2]; 357.14 K): 1160.9 ± 50 J/K/mol
molar heat capacity at constant pressure ([2]; 358.14 K): 1162.6 ± 50 J/K/mol
molar heat capacity at constant pressure ([2]; 359.14 K): 1164.4 ± 50 J/K/mol
molar heat capacity at constant pressure ([2]; 360.14 K): 1166.1 ± 50 J/K/mol
molar heat capacity at constant pressure ([2]; 361.14 K): 1167.9 ± 50 J/K/mol
molar heat capacity at constant pressure ([2]; 362.14 K): 1169.1 ± 50 J/K/mol
molar heat capacity at constant pressure ([2]; 363.14 K): 1170.8 ± 50 J/K/mol
molar heat capacity at constant pressure ([2]; 364.14 K): 1172.6 ± 50 J/K/mol
molar heat capacity at constant pressure ([2]; 365.14 K): 1174.3 ± 50 J/K/mol
molar heat capacity at constant pressure ([2]; 366.14 K): 1176.1 ± 50 J/K/mol
molar heat capacity at constant pressure ([2]; 367.14 K): 1177.3 ± 50 J/K/mol
molar heat capacity at constant pressure ([2]; 368.14 K): 1179 ± 50 J/K/mol
molar heat capacity at constant pressure ([2]; 369.14 K): 1180.8 ± 50 J/K/mol
molar heat capacity at constant pressure ([2]; 370.14 K): 1182.5 ± 50 J/K/mol
molar heat capacity at constant pressure ([2]; 371.14 K): 1184.3 ± 50 J/K/mol
molar heat capacity at constant pressure ([2]; 372.14 K): 1185.4 ± 50 J/K/mol
molar heat capacity at constant pressure ([2]; 373.14 K): 1187.2 ± 50 J/K/mol
molar heat capacity at constant pressure ([2]; 374.14 K): 1188.9 ± 50 J/K/mol
molar heat capacity at constant pressure ([2]; 375.14 K): 1190.7 ± 51 J/K/mol
molar heat capacity at constant pressure ([2]; 376.14 K): 1192.5 ± 51 J/K/mol
molar heat capacity at constant pressure ([2]; 378.14 K): 1196 ± 51 J/K/mol
molar heat capacity at constant pressure ([2]; 379.14 K): 1197.7 ± 51 J/K/mol
molar heat capacity at constant pressure ([2]; 380.14 K): 1198.9 ± 51 J/K/mol
molar heat capacity at constant pressure ([2]; 381.14 K): 1200.6 ± 51 J/K/mol
molar heat capacity at constant pressure ([2]; 382.14 K): 1202.4 ± 51 J/K/mol
molar heat capacity at constant pressure ([2]; 383.14 K): 1204.2 ± 51 J/K/mol
molar heat capacity at constant pressure ([2]; 384.14 K): 1205.9 ± 51 J/K/mol
molar heat capacity at constant pressure ([2]; 385.14 K): 1207.7 ± 51 J/K/mol
molar heat capacity at constant pressure ([2]; 386.14 K): 1209.4 ± 51 J/K/mol
molar heat capacity at constant pressure ([2]; 387.14 K): 1211.2 ± 51 J/K/mol
molar heat capacity at constant pressure ([2]; 388.14 K): 1212.9 ± 51 J/K/mol
molar heat capacity at constant pressure ([2]; 389.14 K): 1214.1 ± 51 J/K/mol
molar heat capacity at constant pressure ([2]; 390.14 K): 1215.9 ± 51 J/K/mol
molar heat capacity at constant pressure ([2]; 391.14 K): 1217.6 ± 51 J/K/mol
molar heat capacity at constant pressure ([2]; 392.14 K): 1219.4 ± 51 J/K/mol
molar heat capacity at constant pressure ([2]; 393.14 K): 1220.5 ± 51 J/K/mol
molar heat capacity at constant pressure ([2]; 394.14 K): 1222.3 ± 51 J/K/mol
molar heat capacity at constant pressure ([2]; 395.14 K): 1224 ± 51 J/K/mol
molar heat capacity at constant pressure ([2]; 396.14 K): 1225.2 ± 51 J/K/mol
molar heat capacity at constant pressure ([2]; 397.14 K): 1227 ± 51 J/K/mol
molar heat capacity at constant pressure ([2]; 398.14 K): 1228.7 ± 51 J/K/mol
molar heat capacity at constant pressure ([2]; 399.14 K): 1230.5 ± 52 J/K/mol
molar heat capacity at constant pressure ([2]; 400.14 K): 1232.2 ± 52 J/K/mol
molar heat capacity at constant pressure ([2]; 401.14 K): 1234 ± 52 J/K/mol
molar heat capacity at constant pressure ([2]; 402.14 K): 1235.7 ± 52 J/K/mol
molar heat capacity at constant pressure ([2]; 403.14 K): 1236.9 ± 52 J/K/mol
molar heat capacity at constant pressure ([2]; 404.14 K): 1238.7 ± 52 J/K/mol
molar heat capacity at constant pressure ([2]; 405.14 K): 1240.4 ± 52 J/K/mol
molar heat capacity at constant pressure ([2]; 406.14 K): 1242.2 ± 52 J/K/mol
molar heat capacity at constant pressure ([2]; 407.14 K): 1243.9 ± 52 J/K/mol
molar heat capacity at constant pressure ([2]; 408.14 K): 1245.7 ± 52 J/K/mol
molar heat capacity at constant pressure ([2]; 409.14 K): 1247.4 ± 52 J/K/mol
molar heat capacity at constant pressure ([2]; 410.14 K): 1248.6 ± 52 J/K/mol
molar heat capacity at constant pressure ([2]; 411.14 K): 1250.4 ± 53 J/K/mol
molar heat capacity at constant pressure ([2]; 412.13 K): 1252.1 ± 53 J/K/mol
molar heat capacity at constant pressure ([2]; 413.14 K): 1253.9 ± 53 J/K/mol
molar heat capacity at constant pressure ([2]; 414.13 K): 1255.6 ± 53 J/K/mol
molar heat capacity at constant pressure ([2]; 415.14 K): 1257.4 ± 53 J/K/mol
molar heat capacity at constant pressure ([2]; 416.14 K): 1258.5 ± 53 J/K/mol
molar heat capacity at constant pressure ([2]; 417.14 K): 1260.3 ± 53 J/K/mol
